Values quoted from earlier work as cited in patent US11369619B2, “Composition for curing migraine headaches” (priority 2014, dated 2022).

How the values were obtained:
migraine = conditions: topical administration
[1] = taken orally, dosages of several hundred milligrams per day
male mice = conditions: intravenous

## CCN(CC)CC(=O)Nc1c(C)cccc1C [lidocaine]
migraine
  patients in whom treatment was effective: about 55%

## Cc1ncc(C[n+]2csc(CCO)c2C)c(N)n1 [thiamine]
[1]
  adverse effects: no reports of adverse effects

## C[C@@H]1C[C@H]2[C@@H]3CCC4=CC(=O)C=C[C@]4(C)[C@@]3(F)[C@@H](O)C[C@]2(C)[C@@]1(O)C(=O)COP(=O)(O)O [Dexamethasone phosphate]
other
  solubility in water: practically insoluble in water

## C[C@@H]1C[C@H]2[C@@H]3CCC4=CC(=O)C=C[C@]4(C)[C@@]3(F)[C@@H](O)C[C@]2(C)[C@@]1(O)C(=O)COP(=O)(O)O [dexamethasone sodium phosphate]
Male mice
  LD50: 794 mg/kg
